Results reported in patent publication US7198942B2, “Acetylcholine receptor subunits” (Bayer CropScience LP, priority 2000, dated 2007).

Experiments:
[1] = system: Untransfected control cells (Sf9); test: Whole-cell recordings on untransfected Sf9 control cells; assay type: cell-based, Spodoptera frugiperda; settings: untransfected Sf9 control cells in the same experiment
From the text: Spodoptera frugiperda 9 (Sf9) cells were transfected simultaneously with cDNA expression plasmids which code for the modified heliothis/chicken subunit and for the chicken β2 subunit using a liposomal transfection reagent (DAC-30, Eurogentec, Belgium). A cDNA expression construct for the green fluorescent protein from Aequoria victoria was transfected simultaneously. This makes it possible simply to identify transfected cells because experience has shown that most of the cells which have taken up one of the constructs have also taken up the other ones. 24 to 48 hours after transfection, the currents through the cell membrane of the Sf9 cells were measured by whole-cell recordings. For this purpose, the potential difference across the cell membrane was kept constant at −70 mV. Substances were applied using the U-tube reversed flow technique (Fenwick 1982). […]
To check whether expression of the cDNAs which code for the modified heliothis/chicken subunit shown in SEQ ID NO: 3 and the chicken β2 subunit led to the production of functional acetylcholine receptors in the cells, whole-cell recordings were carried out by the method described above, during which the cells were stimulated with acetylcholine (1000 μM) or imidacloprid (100 μM). […] In order to quantify the results, a series of experiments was carried out with 5 measurements. […]

[2] = target: T1, receptors consisting of the chicken β2 subunit and polypeptide according to SEQ ID NO: 11 (Gallus gallus, UniProt P09482+P09484, A209V/D197E/E200T/E219T/G202V/G211A/I207L/I224P/K217F/L196S/N208E/N212V/P226L/Q195L/S215E/S231N/T222D/V205D/V210P/W199Y/Y198F/Y213R/Y230F); assay type: cell-based, Heliothis virescens / chicken; settings: Xenopus oocytes, membrane voltage −80 mV
T1 construct: expressed in transfected cells; host or cells: Xenopus oocytes (nuclear injection of cDNA expression vectors)
Description: (§1) Xenopus oocytes were isolated and prepared as previously described (Bertrand et al. 1991). On the first day after isolation of the oocytes, in each case 10 nl of a solution with 2 ng of an appropriate cDNA expression vector were injected into the cell nuclei of the oocytes. The oocytes were kept at 19° C. in a suitable medium (BARTH solution consisting (in mM) of NaCl 88, KCl 1, NaHCO3 2.4, MgSO4 0.82, Ca(NO3)2 0.33, CaCl2 0.41, HEPES 10, pH 7.4) for 3–5 days. After this time, the electrophysiological experiments were carried out.
(§2) Electrophysiological recordings were carried out using a dual electrode voltage clamp by tried and tested methods which are well known (compare Bertrand et al. 1992). Each oocyte was placed singly in a measurement chamber and pierced by two microelectrodes. […] The membrane voltage was fixed at −80 mV using a voltage clamp amplifier (TEC-00, npi, Tamm, Germany), and the inward current flowing through the cell membrane was measured and recorded by computer. Frog Ringer solution containing 115 mM NaCl; 2.5 mM KCl; 1.8 mM CaCl2; 10 mM HEPES; at pH 7.4 (adjusted with NaOH) flowed at a flow rate of 5–10 ml/minute through the measurement chamber. In order to test acetylcholine, imidacloprid or another active substance on these oocytes, the substance was added in the intended concentration to the frog Ringer solution and the perfusion of the measurement chamber was briefly changed over to this test solution. Acetylcholine (Fluka, Buchs, Switzerland) was stored as stock solution at −20° C. and added to the measurement solution immediately before the experiment.
(§3) In this case it is immediately evident from the occurrence of an additional inward current signal whether the receptor variant expressed in the particular oocyte can be activated by imidacloprid or not.
(§4) In order to characterize the sensitivity of the modified receptors to acetylcholine and imidacloprid in more detail, dose-effect plots were recorded by repeating the experiment described above with different concentrations of the substance.

[3] = target: T2, receptors consisting of the chicken β2 subunit and polypeptide according to SEQ ID NO: 3 (Gallus gallus, UniProt P09482+P09484, A129E/D127N/D141T/F139N/F162Y/H132L/H137T/I144V/K145E/K171V/L133A/M147R/N169T/S157E/T161E); assay type: cell-based, Heliothis virescens / chicken; settings: Xenopus oocytes, membrane voltage −80 mV, FIG. 2A
T2 construct: expressed in transfected cells; host or cells: Xenopus oocytes (nuclear injection of cDNA expression vectors)
Description: as §1, §2, §3, §4

[4] = target: T3, receptors consisting of the chicken β2 subunit and polypeptide according to SEQ ID NO: 7 (Gallus gallus, UniProt P09482+P09484, INS192RGTNVVELG); assay type: cell-based, Heliothis virescens / chicken; settings: Xenopus oocytes, membrane voltage −80 mV
T3 construct: expressed in transfected cells; host or cells: Xenopus oocytes (nuclear injection of cDNA expression vectors)
Description: as §1, §2, §3, §4

[5] = system: receptors comprising unmodified Heliothis α1 subunits and chicken β2 subunits; test: Dual electrode voltage clamp on Xenopus oocytes expressing Heliothis α1/chicken β2 receptors; assay type: cell-based, Heliothis virescens / chicken; settings: membrane voltage −80 mV, FIG. 2C
Description: as §1
Electrophysiological recordings were carried out using a dual electrode voltage clamp by tried and tested methods which are well known (compare Bertrand et al. 1992). Each oocyte was placed singly in a measurement chamber and pierced by two microelectrodes. […] The membrane voltage was fixed at −80 mV using a voltage clamp amplifier (TEC-00, npi, Tamm, Germany), and the inward current flowing through the cell membrane was measured and recorded by computer. […]
as §4

[6] = target: T4, receptor containing polypeptide shown in SEQ ID NO: 3 and the chicken β2 subunit (Gallus gallus, UniProt P09482+P09484, A129E/D127N/D141T/F139N/F162Y/H132L/H137T/I144V/K145E/K171V/L133A/M147R/N169T/S157E/T161E); test: Whole-cell recordings on transfected Sf9 cells, SEQ ID NO: 3/chicken β2; assay type: cell-based, Heliothis virescens / chicken; settings: −70 mV
T4 construct: expressed in transfected cells; host or cells: Spodoptera frugiperda Sf9 cells (transient, DAC-30; GFP co-transfected as a marker)
From the text: Spodoptera frugiperda 9 (Sf9) cells were transfected simultaneously with cDNA expression plasmids which code for the modified heliothis/chicken subunit and for the chicken β2 subunit using a liposomal transfection reagent (DAC-30, Eurogentec, Belgium). A cDNA expression construct for the green fluorescent protein from Aequoria victoria was transfected simultaneously. This makes it possible simply to identify transfected cells because experience has shown that most of the cells which have taken up one of the constructs have also taken up the other ones. 24 to 48 hours after transfection, the currents through the cell membrane of the Sf9 cells were measured by whole-cell recordings. For this purpose, the potential difference across the cell membrane was kept constant at −70 mV. Substances were applied using the U-tube reversed flow technique (Fenwick 1982). The volume of the experimental chamber, which was continuously perfused with bath solution (3 ml/min), was less than 0.5 ml. […] The pipette solution contained (in mM): 150 KCl, 10 HEPES 10 K-EGTA (pH 7.2). The microelectrodes were produced in an electrode puller (Zeitz, Germany) from borosilicate glass blanks (external diameter 1.6 mm, Hilgenberg, Germany). The resistance of the flame-polished microelectrodes on use of the abovementioned pipette and bath solutions was between 4 and 6 MΩ. […]

[7] = target: chicken α4 subunit and the chicken β2 subunit (Gallus gallus, UniProt P09482+P09484); test: Whole-cell recordings on transfected Sf9 cells, chicken α4/β2; assay type: cell-based; settings: −70 mV

Row | Compound | response (inward current) [1] | ligand-induced conductance / sensitivity [2] | ligand-induced conductance / sensitivity [3] | ligand-induced conductance / sensitivity [4] | sensitivity (ligand-induced conductance) [5] | inward currents after stimulus ([6]; 100 μM imidacloprid, FIG. 3) | amplitude ratio (maximum amplitude on 100 μM imidacloprid divided by maximum amplitude on 1000 μM acetylcholine) ([6]; n=5 cells) | inward currents on application ([7]; 100 μM imidacloprid) | amplitude ratio (maximum amplitude on 100 μM imidacloprid divided by maximum amplitude on 1000 μM acetylcholine) ([7]; n=5 cells)
1 | CC(=O)OCC[N+](C)(C)C [acetylcholine] | no response | – | – | – | – | – | – | – | –
2 | O=[N+]([O-])NC1=NCCN1Cc1ccc(Cl)nc1 [imidacloprid] | no response | only the receptors consisting of the chicken β2 subunit and polypeptides according to SEQ ID NO: 3 are sensitive to imidacloprid | sensitive | only the receptors consisting of the chicken β2 subunit and polypeptides according to SEQ ID NO: 3 are sensitive to imidacloprid | sensitive | strong inward currents | 0.46±0.09 | either no or only very weak inward currents | 0.05±0.06
